Reference: patent US7432107B2, “Cardiac hormones for assessing cardiovascular risk” (Roche Diagnostics Operations, Inc., priority 2005, dated 2008)

Tests used:
[1] = set-up: species or system patients; details: human, in vivo, 24 weeks
Experimental: NT-proBNP was measured in baseline serum samples from 433 patients entering a prospective study, designed primarily to define the therapeutic effect of a novel metallo-proteinase inhibitor in osteoarthritis (OA). Cardiovascular adverse events (CV-AEs) were monitored and related to the concomitant use of cox-2 inhibitors or NSAIDs or prostaglandin metabolism influencing steroids. In a retrospective analysis the question was evaluated whether CV AEs in patients receiving anti-inflammatory drugs could have been predicted from elevated NT-proBNP values. […]
Permitted rescue anti-inflammatory drugs including cox-2 inhibitors and NSAIDs or steroids for this trial were aspirin, diclofenac sodium, diflunisal, etodolac, fenoprofen, ibuprofen, ketoprofen, naproxen, nabumetone, oxaprozin, piroxicam, sodium salicylate, choline magnesium salicylate, celecoxib, rofecoxib or tolmetin. […] Patients were not enquired actively for the occurrence of angina pectoris, signs or symptoms of congestive heart failure, or arterial hypertension, nor was the ECG routinely evaluated for the occurrence of new Q-waves or new bundle branch block. […]

[2] = 48 hours at room temperature or at 4° Celsius; cited from earlier work
[3] = cited from earlier work
[4] = cited from earlier work; remark: listed apart in the source

Molecule: CC(=O)Nc1ccc(O)cc1 [acetaminophen]
- Hazard Ratio of covariate (takes drug at baseline), time to CV adverse events [1]: 0.653

Molecule: BNP: active natriuretic hormone of 32 amino acids, cleaved from proBNP
- concentration loss on storage [2]: at least 20%
- in-vivo half-life ([3]; in vivo): 0.333 h

Molecule: CS(=O)(=O)c1ccc(C2=C(c3ccccc3)C(=O)OC2)cc1 [Rofecoxib]
- additional cardiovascular incidents (myocardial infarction, stroke) ([4]; 25 mg compared with placebo, after 18 months of follow-up): 16 per 1,000 treated patients
- blood pressure levels ([4]; 25 mg versus placebo, early post-observation phase): higher blood pressure levels
- rise in the rate of serious thromboembolic incidents ([4]; APPROVE study): 3.9 times

B1: NT-proBNP: N-terminal pro peptide of 76 amino acids, cleaved from proBNP; inactive counterpart of BNP (protein, UniProt P16860 27-102, looked up)
NT-proBNP: HPLGSPGSASDLETSGLQEQRNHLQGKLSELQVEQTSLEPLQESPRPTGVWKSREVATEGIRGHRKMVLYTLRAPR
modifications: NT-proBNP
- in-vivo half-life, longer than that of BNP ([3]; difference to BNP): 2 h
